Ends that are not written are not given here.
Tests used:
pepsin = pepsin (Homo sapiens, UniProt P0DJD8); experiment: Assay of pepsin inhibition (casein substrate, pH 2.0, OD 280 nm); assay type: biochemical; conditions: purified RP-HPLC compound
Description: In a feature of the invention, the pepsin inhibitor was selectively purified by removing the high molecular weight compounds from the culture broth by treating it with activated charcoal. The charcoal treated broth was filtered through ultrafiltration membrane and concentrated by lyophilization. The concentrated inhibitor sample was loaded onto a reverse phase-high performance liquid chromatography column using a linear gradient of acetonitrile and triflouroacetate, and the peaks were checked for the inhibitor activity. […] This compound absorbs strongly at 210 nm. The compound was collected and checked as a single purified peptide after loading onto the HPLC column. One unit of inhibitor is defined as the amount of inhibitor which inhibits the protease activity expressed in terms of decrease in optical density of 0.001 per minute.
The protease pepsin was incubated in KC1-HC1 buffer, 0.02 M, pH-2.0, containing the inhibitor in various molar ratios at 37° C. for 30 min. After incubation the residual activity was determined and compared with the controls incubated without the inhibitor.
For example—To 0.05 ml of 100 mg/ml of aqueous solution of pepsin, 0.1 ml of the inhibitor solution was added. […] Precipitated excess casein was removed by filtration after incubation for one hour and the optical density was measured at 280 nm. […]

Fusarium oxysporum = experiment: Antifungal activity assay (mycelial growth / spore germination); assay type: cell-based
Description: (§1) The fungal strains Trichoderma reesei (deposited at The National Collection for Industrial Micro-organisms, Pune India and bearing accession numbers NCIM 992, NCIM 1052- and NCIM 1186), Fusarium oxysporum (bearing accession numbers NCIM 1008, 1043, 1072), Aspergillus flavus (bearing accession numbers NCIM 535, 536, 538, 542), Aspergillus oryzae (bearing accession numbers NCIM 637, 643, 649, 1032), Fusarium moniliforme (bearing accession numbers NCIM 1099, 1100), Alternaria alternata (bearing accession numbers NCIM 887), Claviceps purpurea (bearing accession numbers NCIM 1046), Curvularia fallax (bearing accession numbers NCIM 714), Curvularia lunata (NCIM 716), Curvularia cymbopogonis (bearing accession numbers NCIM 695) and Penicillium fellatanum (bearing accession numbers NCIM 1227) were grown on potato dextrose agar slants for 7-8 days. The said fungal strains have characteristics similar to the strains deposited at American Type Culture Collection, USA and bearing accession number as under: • Trichoderma reesei NCIM 992-ATCC No.13631 • Trichoderma reesei NCIM 1052-ATCC No.24449 • Trichoderma reesei NCIM 1186-ATCC No.26921 Fungal mycelium from the freshly grown culture was inoculated at the centre of petri plates containing potato dextrose agar medium and incubated till they form small circular growth. The time period for the vegetative growth of different fungus is different. On the periphery of the advancing fungal mycelia, four filter paper discs were impregnated at equal distances, with four different concentrations of the inhibitor sample. The plates were incubated at room temperature for 24-48 h to check the crescent zone of the retarded mycelial growth. For sporulating fungus the applicants also had checked the inhibition by spore suspension method. In this method the agar slants were incubated at room temperature till they sporulate. 4 ml of sterile distilled water was added aseptically to the agar slant and the spores were scrapped by using an inoculation loop. 1 ml of this suspension was mixed with 4 ml of malt extract, glucose, yeast extract, peptone media containing 0.4% agarose and poured onto the potato dextrose agar plate. This plate was incubated at room temperature for 4-10 h. Filter paper discs were impregnated and different concentrations of the inhibitor was added onto it. The plates were further incubated at room temperature for 24-48 h and the inhibition zone against the growth was checked. […] The advantages of the Invention are
(§2) Inhibition of growth of fungi by the inhibitor was studied using inhibition assays against mycelial growth and spore germination.
(§3) For example-In case of mycelial growth inhibition assay, fungal mycelium from freshly grown culture was inoculated at the center of potato dextrose agar plate and incubated at 28° C. for 48-72 hours. Sterile filter paper discs impregnated with different concentrations of the inhibitor were placed on the periphery of the growing fungal mycelium. The plates were incubated at 28° C. and the crescent zones of the retarded mycelial growth were observed. In case of inhibition assay against spore-germination, fungal spore suspension was made in malt extract, glucose, yeast extract and peptone (MGYP) liquid medium. To the spore suspension, various concentration of the inhibitor was added. The resulting suspension was incubated at 28° C. for 24 hours. The germination of the spores in presence and absence of the inhibitor were checked under inverted microscope. The minimum inhibitory does MID of several fungal strains are given below in the Table 2.

Alternaria alternata = experiment: as above; assay type: cell-based
Description: as §1, §2, §3

Fusarium moniliforme = experiment: as above; assay type: cell-based; conditions: 28° C.
Description: as §1, §2, §3

Trichoderma reesei = experiment: as above; assay type: cell-based
Description: as §1, §2, §3

Aspergillus oryzae = experiment: as above; assay type: cell-based
Description: as §1, §2, §3

Aspergillus flavus = experiment: as above; assay type: cell-based
Description: as §1, §2, §3

Curvularia fallax = experiment: Mycelial growth inhibition, filter paper disc on potato dextrose agar; assay type: cell-based; conditions: Curvularia fallax NCIM 714; room temperature 24-48 h
Description: as §1, with “are […]” for “are”

Claviceps purpurea = experiment: as above; assay type: cell-based; conditions: Claviceps purpurea NCIM 1046; room temperature 24-48 h
Description: as §1, with “are […]” for “are”

Curvularia cymbopogonis = experiment: as above; assay type: cell-based; conditions: Curvularia cymbopogonis NCIM 695; room temperature 24-48 h
Description: as §1, with “are […]” for “are”

Curvularia lunata = experiment: as above; assay type: cell-based; conditions: Curvularia lunata NCIM 716; room temperature 24-48 h
Description: as §1, with “are […]” for “are”

pepsin, sequence (P0DJD8 63-388): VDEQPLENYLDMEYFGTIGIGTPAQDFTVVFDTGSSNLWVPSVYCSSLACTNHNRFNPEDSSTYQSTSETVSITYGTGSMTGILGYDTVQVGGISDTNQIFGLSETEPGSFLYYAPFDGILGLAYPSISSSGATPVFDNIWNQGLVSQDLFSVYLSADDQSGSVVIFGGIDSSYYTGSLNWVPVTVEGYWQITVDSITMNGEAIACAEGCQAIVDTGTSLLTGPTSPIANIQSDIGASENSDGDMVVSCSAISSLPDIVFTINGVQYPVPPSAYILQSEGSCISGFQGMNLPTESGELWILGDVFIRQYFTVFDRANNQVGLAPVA

In the case of AGKKDDDDPPE [inhibitor], the “inhibition against pepsin (RP-HPLC peak)” value (pepsin) is reported as “showed the inhibition”, the “inhibition of mycelial growth” value (Fusarium oxysporum; Fusarium oxysporum NCIM 1008, 1072, room temperature 24-48 h) is reported as “strongly inhibit” and the “MID (minimum inhibitory dose)” value (Fusarium oxysporum; Fusarium oxysporum, 28° C.) is reported as 2.300 mg. The “inhibition of mycelial growth” value (Alternaria alternata; Altemaria alternata NCIM 887, room temperature 24-48 h) was “strongly inhibit”, the “MID (minimum inhibitory dose)” value (Alternaria alternata; Alternaria alternata, 28° C.) was 0.582 mg and the “MID (minimum inhibitory dose)” value (Fusarium moniliforme) was 1.840 mg. For the same sequence, the “inhibition of mycelial growth” value (Trichoderma reesei; Trichoderma reesei NCIM 992, 1052, 1186, room temperature 24-48 h) was “strongly inhibit”, the “MID (minimum inhibitory dose)” value (Trichoderma reesei; Trichoderma reesei, 28° C.) was 0.292 mg and the “inhibition of mycelial growth” value (Aspergillus oryzae; Aspergillus oryzae NCIM 637, 643, room temperature 24-48 h) was “strongly inhibit”. For the same sequence, the “MID (minimum inhibitory dose)” value (Aspergillus oryzae; Aspergillus oryzae, 28° C.) was 1.147 mg, the “inhibition of mycelial growth” value (Aspergillus flavus; Aspergillus flavus NCIM 535, 542, room temperature 24-48 h) was “strongly inhibit” and the “MID (minimum inhibitory dose)” value (Aspergillus flavus; Aspergillus flavus, 28° C.) was 0.817 mg. The “inhibition of mycelial growth” value (Curvularia fallax) was “strongly inhibit”, the “inhibition of mycelial growth” value (Claviceps purpurea) was “strongly inhibit” and the “inhibition of mycelial growth” value (Curvularia cymbopogonis) was “strongly inhibit”. The “inhibition of mycelial growth” value (Curvularia lunata) was “strongly inhibit”.
